Assay: in vitro
Conditions: human, hela cells, % viability

First: Cc1ccc(-c2c(C(=O)NNC(=S)NCC3CCCO3)csc2C)cc1 (stereo not shown) [CBK267062]
Second: O=C(NC1CC1)c1ccc(-c2cnc3[nH]c(=O)n(CC4CCOCC4)c3n2)cc1 [CBK064890]
The viability at 28.5 h, 10 µM of the first is higher: 86.6% for the first, 85.2% for the second.

Going from `Cn1nccc1NS(=O)(=O)c1cccc2cccnc12` [CBK062069] to `Cc1nn(C)c(Cl)c1S(=O)(=O)Nc1cccc(-c2cnco2)c1` [CBK067107], the viability at 28.5 h, 10 µM falls from 98.9% to 78.8%.

First: CCOc1ccccc1OCC(C)CNC (stereo not shown) [CBK026242G]
Second: CCOC(=O)COc1ccc(C#N)cc1OCC [CBK058937]
The viability at 28.5 h, 10 µM of the first is higher: 120% for the first, 103% for the second.

Compared with `COc1ccc(Cl)cc1S(=O)(=O)N1CCN(Cc2ccc3c(c2)OCO3)CC1` [CBK266913], `CCOC(=O)CN1CCN(S(=O)(=O)c2ccc(F)c(F)c2F)CC1` [CBK044345] is lower in viability at 28.5 h, 10 µM: 98.5% for the first, 92.4% for the second.

Compared with `Cc1cc(=O)n(C)c(=O)n1CCCCCN1CCCC1` [CBK027386], `CS(=O)(=O)N1CC2(CCN(CCCCC3NC(=O)NC3=O)CC2)c2ccccc21` (stereo not shown) [CBK126684] is lower in viability at 28.5 h, 10 µM: 99.9% for the first, 97.1% for the second.

Going from `O=C(C1CC1)N1CCC(Cn2nc(-c3ccccc3)ccc2=O)CC1` [CBK284115] to `COc1ccccc1NS(=O)(=O)c1ccc(N2CCN3CCCC3C2)c(N)c1` (stereo not shown) [CBK001266], the viability at 28.5 h, 10 µM rises from 89.7% to 92.6%.

Compared with `CC1(C)Cc2nc(-c3ccccc3)nc(SCC(=O)NCCc3ccccc3)c2CO1` [CBK267205], `O=C(Cc1ccccc1)N1CCN(CCCc2ccccc2)CC1` [CBK263451G] is higher in viability at 28.5 h, 10 µM: 86.7% for the first, 96.8% for the second.

First: O=C(Cn1ccc2ccnc(-c3cccs3)c21)NCc1ccccn1 [CBK284735]
Second: OCc1ccc(-c2nccnc2NCc2cccs2)cc1 [CBK088689]
The viability at 28.5 h, 10 µM of the first is lower: 95.9% for the first, 99.1% for the second.

First: CC(=O)Nc1ccc(CNC(=O)CN(C)Cc2cccc(O)c2)cc1 [CBK307660]
Second: CNC(=O)c1sc2ccccc2c1C1CCN(C(=O)CCN(C)c2ccc(F)cc2)C1 (stereo not shown) [CBK285878]
The viability at 28.5 h, 10 µM of the first is lower: 84.8% for the first, 96.5% for the second.

Going from `Cc1ccc(C(=O)N2CCC3(CC2)CNC(=O)c2ccccc2O3)o1` [CBK285328] to `O=C1NC2(CCN(C(=O)Cc3c(F)ccc(F)c3F)CC2)Oc2ccc(-c3ccoc3)cc21` [CBK115848], the viability at 28.5 h, 10 µM falls from 88.3% to 83.2%.

First: COc1ccc(Cl)cc1NC(=O)CC(C)(C)CC(=O)O [CBK001236]
Second: Cc1nonc1NC(=O)CSc1nc2cc(Cl)ccc2[nH]1 [CBK270095]
The viability at 28.5 h, 10 µM of the first is higher: 90.4% for the first, 84.8% for the second.

First: NNC(=O)c1c(NC(=O)c2ccccc2)sc2c1CCC2 [CBK262516]
Second: CCOC(=O)C(C)NC(=O)c1ccc2nc(C)sc2c1 (stereo not shown) [CBK282508]
The viability at 28.5 h, 10 µM of the first is higher: 104% for the first, 85.5% for the second.

Going from `COc1ccc(C(=O)Nc2nc3ccc(S(N)(=O)=O)cc3s2)cc1` [CBK291147] to `COc1ccc(-c2cc(C(=O)NC(C)c3ccccc3)c3cc(C(C)C)ccc3n2)cc1` (stereo not shown) [CBK294466], the viability at 28.5 h, 10 µM rises from 96.9% to 101%.

First: CCOc1ccc(N(CCC#N)C(=O)Cn2nc(C(=O)O)c3ccccc3c2=O)cc1 [CBK297502]
Second: Cc1nc(SCCN2C(=O)c3ccccc3S2(=O)=O)c2ccccc2n1 [CBK296958]
The viability at 28.5 h, 10 µM of the first is lower: 85.2% for the first, 90% for the second.

First: c1ccc(-c2onc3cc4c(cc23)OCCO4)cc1 [CBK287869]
Second: COc1ccc(CNC(C)C2COc3ccccc3O2)c(OC)c1 (stereo not shown) [CBK074283G]
The viability at 28.5 h, 10 µM of the first is lower: 82.8% for the first, 88.8% for the second.

First: CC(C)COC(=O)CCNc1n[nH]c(=O)[nH]c1=O [CBK293920]
Second: CN(C)S(=O)(=O)c1cccnc1OCC(O)CNC(C)(C)C (stereo not shown) [CBK058059]
The viability at 28.5 h, 10 µM of the first is higher: 86.2% for the first, 84.5% for the second.

First: c1ccc(CNc2c(-c3ccco3)nc3cnccn23)cc1 [CBK283933]
Second: COc1ccccc1CCC(=O)Nc1cnc(-c2ccc(F)cc2)c(-c2ccco2)n1 [CBK037002]
The viability at 28.5 h, 10 µM of the first is lower: 90.6% for the first, 95.1% for the second.

Going from `COCCN1C(=O)C2(CC(=O)N(CCOc3ccccc3)C2=O)c2ccccc21` (stereo not shown) [CBK075322] to `COc1ccccc1N1CCN(C(=O)CCC(=O)c2cccs2)CC1` [CBK091498], the viability at 28.5 h, 10 µM rises from 98.5% to 109%.

First: NC(=O)C1CCN(C2CC(=O)N(c3cccc([N+](=O)[O-])c3)C2=O)CC1 (stereo not shown) [CBK265555]
Second: Cc1ccc2c(c1)OC(C)(C)CC2NC(=O)C1CCN(C)CC1 (stereo not shown) [CBK307626]
The viability at 28.5 h, 10 µM of the first is lower: 105% for the first, 110% for the second.

Going from `CN1CCc2c(c(NCC3CCCO3)nc3[nH]nc(N)c23)C1` (stereo not shown) [CBK287955] to `N#Cc1cc(Cl)ccc1CN1CCCCC1c1[nH]ncc1C(N)=O` (stereo not shown) [CBK304746], the viability at 28.5 h, 10 µM falls from 103% to 88.5%.

Compared with `COc1ccc(S(=O)(=O)N2CC[C@H]3NC(=O)N(c4ccc(C(C)C)cc4)C(=O)[C@H]32)cc1` [CBK289290], `Cc1ccc2nc(-c3ccc(N4C(Nc5nc(C)cc(C)n5)=NC(=O)CC4C(=O)O)cc3)sc2c1` (stereo not shown) [CBK266646] is lower in viability at 28.5 h, 10 µM: 107% for the first, 104% for the second.

Compared with `COCCn1c(CN2Cc3ccc(Cl)cc3C2=O)nnc1[C@H]1C[C@@H](N)C1` [CBK307289], `Cc1nn(C)c(C)c1CC(=O)NC1CCN(c2c(F)cccc2F)C1` (stereo not shown) [CBK306307] is lower in viability at 28.5 h, 10 µM: 102% for the first, 83.2% for the second.

Going from `O=C(N/N=C/c1c[nH]nc1-c1ccccc1)c1cccnc1` [CBK262461] to `N/C(=N\OC(=O)COc1cccc2ccccc12)c1ccc(Cl)cc1` [CBK263004], the viability at 28.5 h, 10 µM falls from 101% to 88.4%.

First: O=C(O)C1CC(=O)N(c2ccc(Br)cc2)C1 (stereo not shown) [CBK286998]
Second: Cc1c2c(n(-c3ccccc3)[n+]1[O-])NC1(CCC1)[C@@H]1C[C@@H](O)[C@@H](O)[C@H]21 [CBK303253]
The viability at 28.5 h, 10 µM of the first is lower: 87.7% for the first, 91.5% for the second.

Going from `Cc1csc(C(=O)N2CCCC(c3cc(O)cc(C)n3)C2)c1` (stereo not shown) [CBK283423] to `Cc1cc(C)[n+](-c2ccccc2O)c(C)c1` [CBK005458G], the viability at 28.5 h, 10 µM rises from 89.5% to 116%.

Going from `CN1C(=O)COc2ccccc2CCCC[C@@H]2[C@H]1CCCN2CCO` [CBK292112] to `CC1Oc2ccc(NC(=O)C3CC4C=CC3C43CC3)cc2NC1=O` (stereo not shown) [CBK281523], the viability at 28.5 h, 10 µM falls from 103% to 101%.

Compared with `Cc1noc(C)c1NC(=O)c1ccc2ncccc2c1` [CBK200308], `N#Cc1ccc(C(=O)Nc2cncc(OC3CCNCC3)n2)cc1` [CBK036371T] is lower in viability at 28.5 h, 10 µM: 104% for the first, 90.6% for the second.

Compared with `Cc1ccn(CCNC(=O)C(C)Cc2cccs2)n1` (stereo not shown) [CBK281625], `CC(C)Nc1nc2ccccc2nc1SCCN(C)C` [CBK103672] is higher in viability at 28.5 h, 10 µM: 106% for the first, 115% for the second.

Going from `COCCNc1nccnc1-c1cnc(OC)nc1OC` [CBK088558] to `Cc1nn(C)c(C)c1-c1ccnc(NCCC2(O)CCN(C)CC2)n1` [CBK307659], the viability at 28.5 h, 10 µM falls from 109% to 86.1%.

First: Cc1c(C)[n+]([O-])c2cc(N3CCN(C)CC3)c(Cl)cc2[n+]1[O-] [CBK263503]
Second: COc1ccc(C(=O)N2CCC3(CCN(Cc4cccc(C#N)c4)C3)C2)cc1OC (stereo not shown) [CBK132153]
The viability at 28.5 h, 10 µM of the first is higher: 96.3% for the first, 87.7% for the second.

Same assay, conditions: human, hela cells, % viability, bulk resorufin, single well

Going from `NCCc1c[nH]c2ccc(OCc3ccccc3)cc12` [CBK260980C] to `Cc1ccc(Cn2nc(C(=O)NCc3ccncc3)c3ccccc32)cc1` [CBK047832], the viability at 28.5 h, 10 µM falls from 84.9% to 82.7%.

Going from `Cc1cc(/C=C2\C(=O)NC(=O)N(C)C2=O)c(C)n1-c1ccc(Oc2ccc([N+](=O)[O-])cn2)cc1` [CBK264294] to `C=CCN1C(=O)/C(=C/c2cc(Cl)c(OCc3cccc(C(=O)O)c3)c(OC)c2)C(=O)NC1=S` [CBK264877G], the viability at 28.5 h, 10 µM rises from 100% to 121%.

Source: article PMC12040169 (PLOS Biology, 2025)
